Results on 8 molecules are retold here after patent US20210277264A1, “INK COMPOSITIONS” (HEWLETT-PACKARD DEVELOPMENT COMPANY, L.P., priority 2018, published 2021).

The nature of the first series: Partition coefficient (log P 1-octanol/water) of organic co-solvents.
Details: not given
The text has this: The hydrophilicity of the organic co-solvent can be quantified as a partition coefficient. As used herein, “partition coefficient” refers to a concentration ratio of a compound in an equilibrium mixture of two immiscible phases, and can be a measure of the difference in solubility of the compound in the two immiscible phases. Formula I provides an equation of quantifying the hydrophilicity of the organic co-solvents of the present disclosure, as follows: […]
On to `CC1(C)NC(=O)NC1=O` [5,5-dimethyl hydantoin], for which the “Partition Coefficient (log P1-octanol/water)” value is given as −0.40.
On the same count and under the same terms, the same measure for `CCCCCCCCO` [Ink 1-octanol, 1-octanol]: 2.34; for `OCCOCCOCCO` [triethylene glycol]: −1.00; for `O=C1CCCN1CCO` [N-(2-hydroxyethyl)-2-pyrrolidinone]: −0.40.
Consider `CC1(C)C(=O)N(CCO)C(=O)N1CCO` [di-(2-hydroxyethy)-5,5-dimethylhydantoin], for which the “Partition Coefficient (log P1-octanol/water)” value was −1.39.
For `O` [water], the “Partition Coefficient (log P1-octanol/water)” value was −0.825.

The series is the same for the next values; noted with them: equilibrium mixture of 1-octanol and water.
With `O=C1CCCN1` [2-pyrrolidone], the “Partition Coefficient (log P1-octanol/water)” value is on record as −0.10.
Consider `CCC(CO)(CO)CO` [ethylhydroxy propanediol], for which the “Partition Coefficient (log P1-octanol/water)” value is −0.50.
